The test deals with pERK1/2(THR202/TYR204) level in AsPC-1 cell line. The experiment in a line: KRAS G12D pERK assay. In kind it is cell-based. Particulars: AsPC-1 cells, 2 h compound treatment, HTRF. As for the experimental part:
AsPC-1 cell line was used in this study. Cells were maintained in RPMI-1640 supplemented with 10% fetal bovine serum (Thermo Fisher), 50 units/mL penicillin and streptomycin (Thermo Fisher) and kept at 37° C. in a humidified atmosphere of 5% CO2 in air. Cells were reinstated from frozen stocks that were laid down within 30 passages from the original cells purchased. 30000 cells per well were seeded into a 96-well plate and incubated overnight. Cells were treated with a 10-point dilution series. The final compound concentration is from 0 to 10 μM. After 2 h compound treatment, cells were lysed, and the pERK1/2(THR202/TYR204) level in the cell lysates was detected by HTRF kit (Cisbio). In brief, a total of 16 μL of cell lysate from each well of a 96-well plate was transferred to a 384-well white assay plate. Lysate from each well was incubated with 2 μL of Eu3+-cryptate (donor) labeled anti-phospho-ERK1/2 and 2 μL of D2 (acceptor) labeled anti-phospho-ERK1/2 antibodies (Cisbio) overnight in dark at room temperature. When donor and acceptor are in close proximity, excitation of the donor with laser triggers a Fluorescence Resonance Energy Transfer (FRET) towards the acceptor, which in turn fluoresces at 655 nm wavelength. FRET signals were measured using a PHERAstar FSX reader (BMG Labtech). IC50 determination was performed by fitting the curve of percent inhibition versus the log of the inhibitor concentration using Dotmatics.
In general terms: Time-resolved FRET reads energy transfer from a long-lived donor to a nearby acceptor.

For orientation: IC50 means the concentration that gives 50% inhibition. A higher IC50 goes with weaker potency. `Nc1cc(Cl)c(C(F)(F)F)c(-c2nc3c4c(nc(OC[C@@]56CCCN5C[C@H](F)C6)nc4c2F)N2C[C@H]4CC[C@H](N4)C2CCO3)c1` (single isomer, unassigned) [Example 24] returned an IC50 of 4.4 nM.

The molecule `Nc1cc(Cl)c(C(F)(F)F)c(-c2nc3c4c(nc(OC[C@@]56CCCN5C[C@H](F)C6)nc4c2F)N2C[C@H]4CC[C@H](N4)C2CCO3)c1` (single isomer, unassigned) [Example 25] showed an IC50 of 504 nM.

For `Cc1nc(N)cc(-c2nc3c4c(nc(OCC56COC(C5)C6)nc4c2F)N2CC4CCC(N4)[C@H]2CCO3)c1C(F)(F)F` (stereo in doubt) [Example 42, 4-((6aR,7R,10S)-13-((2-oxabicyclo[2.1.1]hexan-4-yl)methoxy)-1-fluoro-5,6,6a,7,8,9,10,11-octahydro-4-oxa-3,11a,12,14,15-pentaaza-7,10-methanocyclohepta[4,5]cyclo-octa[1,2,3-de]naphthalen-2-yl)-6-methyl-5-(trifluoromethyl)pyridin-2-amine], the IC50 (Homo sapiens, ASPC1, 2 h) was 1850 nM.

Turning to `Nc1cc(Cl)c(C(F)(F)F)c(-c2nc3c4c(nc(OC[C@@]56CCCN5C[C@H](F)C6)nc4c2F)N2CC4CCC(N4)C2CO3)c1` (stereo partly drawn) [Example 10, 3-chloro-5-(1-fluoro-12-(((2R,7aS)-2-fluorotetrahydro-1H-pyrrolizin-7a(5H)-yl)methoxy)-5a,6,7,8,9,10-hexahydro-5H-4-oxa-3,10a,11,13,14-pentaaza-6,9-methanonaphtho[1,8-ab]heptalen-2-yl)-4-(trifluoromethyl)aniline], half-maximal inhibition (Homo sapiens, ASPC1, 2 h) (IC50) required 58 nM.

For the setting “Homo sapiens, ASPC1, 2 h”, `C#Cc1c(F)ccc2cc(O)cc(-c3nc4c5c(nc(OC[C@@]67CCCN6C[C@H](F)C7)nc5c3F)N3CC5CCC(N5)C3CO4)c12` (stereo partly drawn) [Example 11, 5-ethynyl-6-fluoro-4-(1-fluoro-12-(((2R,7aS)-2-fluorotetrahydro-1H-pyrrolizin-7a(5H)-yl)methoxy)-5a,6,7,8,9,10-hexahydro-5H-4-oxa-3,10a,11,13,14-pentaaza-6,9-methanonaphtho[1,8-ab]heptalen-2-yl)naphthalen-2-ol] displayed an IC50 of 30 nM.

For the molecule `Nc1cc(Cl)c(C(F)(F)F)c(-c2nc3c4c(nc(OC[C@@]56CCCN5C[C@H](F)C6)nc4c2F)N2C[C@H]4CC[C@H](N4)[C@H]2CO3)c1` [Example 17, 3-chloro-5-((5aS,6S,9R)-1-fluoro-12-(((2R,7aS)-2-fluorotetrahydro-1H-pyrrolizin-7a(5H)-yl)methoxy)-5a,6,7,8,9,10-hexahydro-5H-4-oxa-3,10a,11,13,14-pentaaza-6,9-methanonaphtho[1,8-ab]heptalen-2-yl)-4-(trifluoromethyl)aniline], under “Homo sapiens, ASPC1, 2 h”, the IC50 is 11 nM.

`Cc1cc(N)cc(-c2nc3c4c(nc(OCC56COC(C)(C5)C6)nc4c2F)N2C[C@H]4CC[C@H](N4)[C@H]2CCO3)c1C(F)(F)F` [Example 28, 3-((6aR,7S,10R)-1-fluoro-13-((1-methyl-2-oxabicyclo[2.1.1]hexan-4-yl)methoxy)-5,6,6a,7,8,9,10,11-octahydro-4-oxa-3,11a,12,14,15-pentaaza-7,10-methanocyclohepta[4,5]cyclo-octa[1,2,3-de]naphthalen-2-yl)-5-methyl-4-(trifluoromethyl)aniline]: the IC50 (Homo sapiens, ASPC1, 2 h) was found to be 152 nM.

For `Cc1cc(N)cc(-c2nc3c4c(nc(OCC56COCC(F)(C5)C6)nc4c2F)N2C[C@H]4CC[C@H](N4)[C@H]2CCO3)c1C(F)(F)F` [Example 30, 3-((6aR,7S,10R)-1-fluoro-13-((5-fluoro-3-oxabicyclo[3.1.1]heptan-1-yl)methoxy)-5,6,6a,7,8,9,10,11-octahydro-4-oxa-3,11a,12,14,15-pentaaza-7,10-methanocyclohepta[4,5]cyclo-octa[1,2,3-de]naphthalen-2-yl)-5-methyl-4-(trifluoromethyl)aniline], half-maximal inhibition (Homo sapiens, ASPC1, 2 h) (IC50) required 198 nM.

As for `Cc1c(F)c(N)cc(-c2nc3c4c(nc(OCC5(C(F)F)COC5)nc4c2F)N2C[C@H]4CC[C@H](N4)[C@H]2CCO3)c1C(F)(F)F` [Example 31, 5-((6aR,7S,10R)-13-((3-(difluoromethyl)oxetan-3-yl)methoxy)-1-fluoro-5,6,6a,7,8,9,10,11-octahydro-4-oxa-3,11a,12,14,15-pentaaza-7,10-methanocyclohepta[4,5]cyclo-octa[1,2,3-de]naphthalen-2-yl)-2-fluoro-3-methyl-4-(trifluoromethyl)aniline], for the setting “Homo sapiens, ASPC1, 2 h”, the IC50 turned out to be 162 nM.

In turn, `CCOC(=O)N1CC(C)(COc2nc3c4c(nc(-c5cc(N)cc(Cl)c5C(F)(F)F)c(F)c4n2)OCC[C@@H]2[C@@H]4CC[C@H](CN32)N4)C1` [Example 33, ethyl 3-((((6aR,7S,10R)-2-(5-amino-3-chloro-2-(trifluoromethyl)phenyl)-1-fluoro-5,6,6a,7,8,9,10,11-octahydro-4-oxa-3,11a,12,14,15-pentaaza-7,10-methanocyclohepta[4,5]cyclo-octa[1,2,3-de]naphthalen-13-yl)oxy)methyl)-3-methylazetidine-1-carboxylate] gave an IC50 (Homo sapiens, ASPC1, 2 h) of 286 nM.

`CC12CC(COc3nc4c5c(nc(-c6cc(N)cc(Cl)c6C(F)(F)F)c(F)c5n3)OCC[C@@H]3[C@@H]5CC[C@H](CN43)N5)(CO1)C2` [Example 34, 3-chloro-5-((6aR,7S,10R)-1-fluoro-13-((1-methyl-2-oxabicyclo[2.1.1]hexan-4-yl)methoxy)-5,6,6a,7,8,9,10,11-octahydro-4-oxa-3,11a,12,14,15-pentaaza-7,10-methanocyclohepta[4,5]cyclo-octa[1,2,3-de]naphthalen-2-yl)-4-(trifluoromethyl)aniline] yielded an IC50 (Homo sapiens, ASPC1, 2 h) of 82 nM.

`CC12CCC(COc3nc4c5c(nc(-c6cc(N)cc(Cl)c6C(F)(F)F)c(F)c5n3)OCC[C@@H]3[C@@H]5CC[C@H](CN43)N5)(CO1)C2` [Example 36, 3-chloro-5-((6aR,7S,10R)-1-fluoro-13-((1-methyl-2-oxabicyclo[2.2.1]heptan-4-yl)methoxy)-5,6,6a,7,8,9,10,11-octahydro-4-oxa-3,11a,12,14,15-pentaaza-7,10-methanocyclohepta[4,5]cyclo-octa[1,2,3-de]naphthalen-2-yl)-4-(trifluoromethyl)aniline]: the IC50 (Homo sapiens, ASPC1, 2 h) turned out to be 106 nM.

For the molecule `Nc1cc(Cl)c(C(F)(F)F)c(-c2nc3c4c(nc(OCC56COCC(F)(C5)C6)nc4c2F)N2C[C@H]4CC[C@H](N4)[C@H]2CCO3)c1` [Example 37, 3-chloro-5-((6aR,7S,10R)-1-fluoro-13-((5-fluoro-3-oxabicyclo[3.1.1]heptan-1-yl)methoxy)-5,6,6a,7,8,9,10,11-octahydro-4-oxa-3,11a,12,14,15-pentaaza-7,10-methanocyclohepta[4,5]cyclo-octa[1,2,3-de]naphthalen-2-yl)-4-(trifluoromethyl)aniline], the midpoint of inhibition (Homo sapiens, ASPC1, 2 h), the IC50, lay at 97 nM.

As to `Oc1cc(Cl)c(C2CC2)c(-c2nc3c4c(nc(OCC56COC(C5)C6)nc4c2F)N2C[C@H]4CC[C@H](N4)[C@H]2CCO3)c1` [Example 38, 3-((6aR,7S,10R)-13-((2-oxabicyclo[2.1.1]hexan-4-yl)methoxy)-1-fluoro-5,6,6a,7,8,9,10,11-octahydro-4-oxa-3,11a,12,14,15-pentaaza-7,10-methanocyclohepta[4,5]cyclo-octa[1,2,3-de]naphthalen-2-yl)-5-chloro-4-cyclopropylphenol], where the note is “Homo sapiens, ASPC1, 2 h”, the IC50 amounted to 1870 nM.

`COCC12CC(COc3nc4c5c(nc(-c6cc(N)cc(Cl)c6C(F)(F)F)c(F)c5n3)OCC[C@@H]3[C@@H]5CC[C@H](CN43)N5)(CO1)C2` [Example 39, 3-chloro-5-((6aR,7S,10R)-1-fluoro-13-((1-(methoxymethyl)-2-oxabicyclo[2.1.1]hexan-4-yl)methoxy)-5,6,6a,7,8,9,10,11-octahydro-4-oxa-3,11a,12,14,15-pentaaza-7,10-methanocyclohepta[4,5]cyclo-octa[1,2,3-de]naphthalen-2-yl)-4-(trifluoromethyl)aniline]: the IC50 (Homo sapiens, ASPC1, 2 h) is 409 nM.

As to `COC(=O)N1CC(C)(COc2nc3c4c(nc(-c5cc(N)cc(C)c5C(F)(F)F)c(F)c4n2)OCC[C@@H]2[C@@H]4CC[C@H](CN32)N4)C1` [Example 43, methyl 3-((((6aR,7S,10R)-2-(5-amino-3-methyl-2-(trifluoromethyl)phenyl)-1-fluoro-5,6,6a,7,8,9,10,11-octahydro-4-oxa-3,11a,12,14,15-pentaaza-7,10-methanocyclohepta[4,5]cyclo-octa[1,2,3-de]naphthalen-13-yl)oxy)methyl)-3-methylazetidine-1-carboxylate], the IC50 (Homo sapiens, ASPC1, 2 h) is 584 nM.

`C[C@](O)(COc1nc2c3c(nc(-c4cc(N)cc(Cl)c4C(F)(F)F)c(F)c3n1)OCC[C@@H]1[C@@H]3CC[C@H](CN21)N3)C(F)(F)F` [Example 44, (S)-3-(((6aR,7S,10R)-2-(5-amino-3-chloro-2-(trifluoromethyl)phenyl)-1-fluoro-5,6,6a,7,8,9,10,11-octahydro-4-oxa-3,11a,12,14,15-pentaaza-7,10-methanocyclohepta[4,5]cyclo-octa[1,2,3-de]naphthalen-13-yl)oxy)-1,1,1-trifluoro-2-methylpropan-2-ol] registered an IC50 (Homo sapiens, ASPC1, 2 h) of 2220 nM.

(Values after patent publication US20250262222A1, “HETEROCYCLIC COMPOUNDS, COMPOSITIONS THEREOF, AND METHODS OF TREATMENT THEREWITH” (BeiGene Switzerland GmbH, priority 2022, published 2025).)
